Test results taken from US6552058B1, “Oxazolidinedione derivatives and their use” (Takeda Chemical Industries, Ltd., priority 1993, dated 2003).
Where two headings read alike, the source gives them in different places.

Assays:
KKA^y mice = test: Hypoglycemic and hypolipidemic actions in mice (plasma glucose and triglyceride); assay type: in vivo; conditions: Mus musculus, po, 96 h, reduction from control group, 0.005% in powdery feed for 4 days
Source text: Hypoglycemic and Hypolipidemic Actions in Mice
A test compound mixed in a powdery feed (CE-2, Japan Clea) at a rate of 0.005% was fed to KKA^y mice (9-14 week old) freely for 4 days. During the period, the animals had free access to water. Blood was collected from the orbital venous plexus. Using the plasma, glucose and triglyceride were enzymatically determined quantitatively by using Iatrochem-GLU(A) and Iatro-MA701 TG kit (latron Inc.). The respective values are percents reduction (%) found in drug-dosed groups from the control group not receiving the test compound, which are shown in [Table 1].

[1] = plasma glucose, read-out: Hypoglycemic Action % reduction
[2] = plasma triglyceride, read-out: Hypolipidemic Action % reduction

Structure (SMILES)	melting point	inhibition in vivo at 0.005 % in diet (KKA^y mice; [1])	inhibition in vivo at 0.005 % in diet (KKA^y mice; [2])
Cc1oc(-c2ccccc2)nc1C(=O)COc1ccc(CCCC2OC(=O)NC2=O)cc1 (stereo not drawn) [Example 35, 5-[3-[4-[2-(5-methyl-2-phenyl-4-oxazolyl)-2-oxoethoxy]phenyl]propyl]-2,4-oxazolidinedione]		42%	32%
Cc1oc(-c2ccccc2)nc1Cc1cc2cc(C=CC=C3OC(=O)NC3=O)ccc2o1 [Example 14, 5-[3-[2-(5-methyl-2-phenyl-4-oxazolylmethyl)benzofuran-5-yl]-2-propenylidene]-2,4-oxazolidinedione]	237 to 239 °C		
Cc1oc(-c2ccccc2)nc1COc1cccc(CCCC2OC(=O)NC2=O)c1 (stereo not drawn) [Example 56, 5-[3-[3-(5-methyl-2-phenyl-4-oxazolylmethoxy)phenyl]propyl]-2,4-oxazolidinedione]		32%	24%
Cc1oc(-c2ccccc2)nc1COc1ccc(CCCC2OC(=O)NC2=O)cn1 (stereo not drawn) [Example 52, 5-[3-[2-(5-methyl-2-phenyl-4-oxazolylmethoxy)-5-pyridyl]propyl]-2,4-oxazolidinedione]		54%	82%
Cc1oc(-c2ccccc2)nc1COc1ccc(C(C)CCC2OC(=O)NC2=O)cc1 (stereo not drawn) [Example 60, 5-[3-[4-(5-methyl-2-phenyl-4-oxazolylmethoxy)phenyl]butyl]-2,4-oxazolidinedione]		54%	77%
Cc1cccc(-c2nc(CCOc3ccc(C=CC=C4OC(=O)NC4=O)cc3)c(C)o2)c1 [Example 1, 5-[4-[2-[5-methyl-2-(3-methylphenyl)-4-oxazolyl]ethoxy]cinnamylidene]-2,4-oxazolidinedione]	213 to 214 °C		
Cc1oc(-c2ccccc2)nc1COc1ccc(CCC2OC(=O)NC2=O)cc1 (stereo not drawn) [Example 32, 5-[2-[4-(5-methyl-2-phenyl-4-oxazolylmethoxy)phenyl]ethyl]-2,4-oxazolidinedione]		63%	60%
Cc1oc(-c2ccccc2)nc1CCOc1ccc(C=CC=CC=C2OC(=O)NC2=O)cc1 [Example 15, 5-[5-[4-[2-(5-methyl-2-phenyl-4-oxazolyl)ethoxy]phenyl]-2,4-pentadienylidene]-2,4-oxazolidinedione]	209 to 211 °C		

Second part, led by results:

melting point	Structure (SMILES)	inhibition in vivo at 0.005 % in diet (KKA^y mice; [1])	inhibition in vivo at 0.005 % in diet (KKA^y mice; [2])
149 to 150 °C	Cc1cccc(-c2nc(CCOc3ccc(CCCC4OC(=O)NC4=O)cc3)c(C)o2)c1 (stereo not drawn) [Example 16, 5-[3-[4-[2-[5-methyl-2-(3-methylphenyl)-4-oxazolyl]ethoxy]phenyl]propyl]-2,4-oxazolidinedione]		
169 to 171 °C	Cc1oc(-c2ccccc2)nc1CCOc1ccc(CCCC2OC(=O)NC2=O)cn1 (stereo not drawn) [Example 23, 5-[3-[2-[2-(5-methyl-2-phenyl-4-oxazolyl)ethoxy]-5-pyridyl]propyl]-2,4-oxazolidinedione]	39%	33%
184 to 185 °C	Cc1oc(-c2ccccc2)nc1Cc1cc2cc(CCCC3OC(=O)NC3=O)ccc2o1 (stereo not drawn) [Example 30, 5-[3-[2-(5-methyl-2-phenyl-4-oxazolylmethyl)benzofuran-5-yl]propyl]-2,4-oxazolidinedione]	57%	70%
157 to 158 °C	Cc1oc(-c2ccccc2)nc1CCOc1ccc(CCCCCC2OC(=O)NC2=O)cc1 (stereo not drawn) [Example 31, 5-[5-[4-[2-(5-methyl-2-phenyl-4-oxazolyl)ethoxy]phenyl]pentyl]-2,4-oxazolidinedione]		
193 to 194 °C	Cc1oc(-c2ccccc2)nc1CCOc1ccc(CCC2OC(=O)NC2=O)cc1 (stereo not drawn) [Example 24, 5-[2-[4-[2-(5-methyl-2-phenyl-4-oxazolyl)ethoxy]phenyl]ethyl]-2,4-oxazolidinedione]	56%	53%
120 to 121 °C	Cc1oc(-c2ccccc2)nc1COc1ccc(CCCCCC2OC(=O)NC2=O)cc1 (stereo not drawn) [Example 33, 5-[5-[4-(5-methyl-2-phenyl-4-oxazolylmethoxy)phenyl]pentyl]-2,4-oxazolidinedione]	45%	59%
146 to 147 °C	Cc1oc(-c2ccccc2)nc1C(O)COc1ccc(CCCC2OC(=O)NC2=O)cc1 (stereo not drawn) [Example 36, 5-[3-[4-[2-hydroxy-2-(5-methyl-2-phenyl-4-oxazolyl)ethoxy]phenyl]propyl]-2,4-oxazolidinedione]	56%	48%
186 to 187 °C	Cc1oc(-c2ccccc2)nc1COc1ccc(CCCCC2OC(=O)NC2=O)cc1 (stereo not drawn) [Example 34, 5-[4-[4-(5-methyl-2-phenyl-4-oxazolylmethoxy)phenyl]butyl]-2,4-oxazolidinedione]	43%	51%
